Experiment [1] has as its target His-GST-TVMV-hRIPK1(1-324) (Homo sapiens (Human), UniProt Q13546). Nature of the experiment: RIPK1 HTRF Binding Assay. The procedure:
A solution was prepared containing 0.2 nM Anti GST-Tb (Cisbio, 61GSTTLB), 90.6 nM probe and 1 nM His-GST-TVMV-hRIPK1(1-324) in FRET Buffer (20 mM HEPES, 10 mM MgCl2, 0.015% Brij-35, 4 mM DTT, 0.05 mg/mL BSA). Using Formulatrix Tempest, the detection antibody/enzyme/probe solution ([…]) was dispensed into wells of a 1536 plate (Black Low Binding Polystyrene 1536 Plate (Corning, 3724)) containing 10 nL of compounds of interest at appropriate concentration in DMSO. The plate was incubated at rt for 1 h. FRET was measured using the EnVision plate reader (Excitation: 340 nm, Emission: 520 nm/[…]). Total signal (0% inhibition) was calculated from wells containing 10 nL DMSO only.
The coding region of human RIPK1(1-324) flanked by NdeI site at 5′ end and stop codon TGA and XhoI site at 3′ end was codon optimized and gene synthesized at GenScript USA Inc. (Piscataway, N.J.) and subcloned into a modified pFastBacl vector (Invitrogen, Carlsbad, Calif.) with N-terminal His-GST-TVMV tag, to generate His-GST-TVMV-hRIPK1(1-324)-pFB. The fidelity of the synthetic fragment was confirmed by sequencing.
(In general: TR-FRET usually uses a lanthanide donor and a delayed reading to cut background.)

Experiment [2] concerns MLKL phosphorylation in HT29-L23 human colorectal adenocarcinoma cells. The experiment is described as follows: MLKL Phosphorylation High-Content Assay. The class given is cell-based. The note with it: 6 h, necroptosis induced with TNFα, SMAC mimetic and Z-VAD, read-out: pMLKL (IC50). The procedure:
MLKL Phosphorylation High-Content Assay
HT29-L23 human colorectal adenocarcinoma cells were maintained in RPMI 1640 medium containing 10% heat-inactivated FBS, 1% Pennicilin-Streptomycin and 10 mM HEPES. Cells were seeded at 2,000 cells/well in 384 w tissue culture-treated microplates (Greiner #781090-3B) and incubated at 37° C. (5% CO2/95% O2) for two days. On the day of assay, the cells were treated with test compounds at final concentrations of 6.25 to 0.106 μM for 30 min at 37° C. (5% CO2/95% O2). Necroptopsis was induced using a mixture of human TNFα (35 ng/mL) (Peprotech #300-01A), SMAC mimetic (from US 2015/0322111 A1) (700 nM) and Z-VAD (140 nM) (BD pharmingen #51-6936). Following six hours incubation at 37° C. (5% CO2/95% O2), the cells were fixed with 4% formaldedye (ACROS 11969-0010) for 15 min at room temperature and then permeabilized with phoshpate buffered saline (PBS) containing 0.2% Triton-X-100 for 10 min. MLKL phosporylation was detected using anti-MLKL (phospho S358) antibody (Abcam # ab187091) (1:1000 dilution in Blocking Buffer [PBS supplemented with 0.1% BSA]) with overnight incubation at 4° C. After washing three times in PBS, goat anti-rabbit Alexa-488 (1:1000 dilution) (Life Technologies, A11008) and Hoechst 33342 (Life Technologies, H3570) (1:2000 dilution) in Blocking Buffer were added for 1 h at room temperature. Following another three cycles of washes in PBS, the microplates were sealed, and cellular images were acquired in the Cellomics ArrayScan VTI high-content imager equipped with an X1 camera. Fluorescent images were taken using a 10× objective and the 386-23 BGRFRN_BGRFRN and 485-20 BGRFRN_BGRFRN filter sets, for nuclei and MLKL phosphorylation, respectively. The image sets were analyzed using the Compartmental Analysis Bioapplication software (Cellomics). The level of MLKL phosphorylation was quantified as MEAN_CircRingAvgIntenRatio. […] The IC50 value was defined as the concentration of compound that produces 50% of the maximal inhibition. The data were fitted using the 4-parameter logistic equation to calculate the IC50 and Ymax values.

Setting [3] is: HTRF binding, 1 h at rt, read-out: RIPK1 (IC50).

The values that follow come from patent US11440913B2, “Aminoimidazopyridazines as kinase inhibitors” (BRISTOL-MYERS SQUIBB COMPANY, priority 2017, dated 2022).

For orientation: IC50 means the concentration that inhibits the measured activity by half.

Structures are written as SMILES. Like-named read-outs stand apart in the source and are kept apart here.

His-GST-TVMV-hRIPK1(1-324), sequence (Q13546 1-324): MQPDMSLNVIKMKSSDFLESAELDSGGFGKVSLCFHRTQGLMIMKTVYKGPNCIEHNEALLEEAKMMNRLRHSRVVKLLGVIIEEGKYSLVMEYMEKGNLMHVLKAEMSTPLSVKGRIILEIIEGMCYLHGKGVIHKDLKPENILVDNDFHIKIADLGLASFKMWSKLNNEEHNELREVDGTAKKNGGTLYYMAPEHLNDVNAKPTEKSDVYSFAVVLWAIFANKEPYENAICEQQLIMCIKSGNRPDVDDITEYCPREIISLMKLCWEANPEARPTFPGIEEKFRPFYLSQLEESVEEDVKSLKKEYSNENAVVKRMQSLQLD

On to `CC(=O)Nc1cn2nc(-c3cc(C(=O)NCc4cc(F)cc(F)c4O[C@H]4CCOC4)c(C)nc3C)ccc2n1` [Example 60, N-({3,5-difluoro-2-[(3S)-oxolan-3-yloxy]phenyl}methyl)-5-{2-acetamidoimidazo[1,2-b]pyridazin-6-yl}-2,6-dimethylpyridine-3-carboxamide], for which the half-maximal inhibitory concentration (IC50) in experiment [1] (setting [3]) turned out to be 6 nM; in experiment [2] (Homo sapiens), 26 nM.

Turning to `COc1ncc(-c2ccc3nc(NC(C)=O)cn3n2)cc1C(=O)NCC[C@H](O)c1ccc(Cl)cc1` [Example 119, N-[(3S)-3-(4-chlorophenyl)-3-hydroxypropyl]-5-{2-acetamidoimidazo[1,2-b]pyridazin-6-yl}-2-methoxypyridine-3-carboxamide], the IC50 came to 116 nM in experiment [1] (setting [3]) and 94 nM in experiment [2] (Homo sapiens).

`[2H]C([2H])([2H])Oc1nc(C)c(-c2ccc3nc(NC(C)=O)cn3n2)cc1C(=O)NC([2H])([2H])c1cc(OC(F)(F)F)ccc1F` [Example 175, 5-{2-acetamidoimidazo[1,2-b]pyridazin-6-yl}-N-{[2-fluoro-5-(trifluoromethoxy)phenyl](deutero)methyl}-2-(deutero)methoxy-6-methylpyridine-3-carboxamide]: the concentration for half-maximal inhibition (IC50) came to 4 nM in experiment [1] (setting [3]) and 16 nM in experiment [2] (Homo sapiens).

On to `[2H]C([2H])([2H])[C@@H](NC(=O)c1c(C)ccc(-c2ccc3nc(NC(C)=O)cn3n2)c1F)c1cc(C(F)(F)F)ccc1F` [Example 413, 3-{2-acetamidoimidazo [1,2-b]pyridazin-6-yl}-2-fluoro-N-[(1R)-1-[2-fluoro-5-(trifluoromethyl)phenyl](2,2,2-Â^2Hâ,f)ethyl]-6-methylbenzamide], for which the values for the IC50 in experiment [1] (setting [3]) and in experiment [2] (Homo sapiens) were 3 nM and 1 nM, respectively.

With `COc1nc(C)c(-c2ccc3nc(NC(C)=O)cn3n2)cc1C(=O)NCc1cc(F)cc(F)c1OCC1CC1` [Example 287, N-{[2-(cyclopropylmethoxy)-3,5-difluorophenyl](deutero)methyl}-5-{2-acetamidoimidazo[1,2-b]pyridazin-6-yl}-2-methoxy-6-methylpyridine-3-carboxamide], the values for the IC50 in experiment [1] (setting [3]) and in experiment [2] were 4 nM and 2 nM, respectively.

Regarding `CC(=O)Nc1cn2nc(-c3cc(C(=O)NCc4cc(F)cc(F)c4O[C@@H]4CCOC4)c(C)nc3C)ccc2n1` [Example 61, N-({3,5-difluoro-2-[(3R)-oxolan-3-yloxy]phenyl}methyl)-5-{2-acetamidoimidazo[1,2-b]pyridazin-6-yl}-2,6-dimethylpyridine-3-carboxamide], the concentration for half-maximal inhibition (IC50) in experiment [1] (setting [3]) is 33 nM; in experiment [2] (Homo sapiens), 258 nM.

For the compound `COc1ncc(-c2ccc3nc(NC(C)=O)cn3n2)cc1C(=O)NCc1ccccc1OCC(C)C` [Example 117, 5-{2-acetamidoimidazo[1,2-b]pyridazin-6-yl}-2-methoxy-N-{[2-(2-methyl-propoxy)phenyl]methyl}pyridine-3-carboxamide], the results for the concentration for half-maximal inhibition (IC50) in experiment [1] (setting [3]) and in experiment [2] (Homo sapiens) were 6 nM and 19 nM, respectively.

Turning to `CC(=O)Nc1cn2nc(-c3cnc(C)c(C(=O)NCc4c(F)cccc4OCC4CCC4)c3)ccc2n1` [Example 219, N-{[2-(cyclobutylmethoxy)-6-fluorophenyl]methyl}-5-{2-acetamidoimidazo[1,2-b]pyridazin-6-yl}-2-methylpyridine-3-carboxamide], the half-maximal inhibitory concentration (IC50) is 3 nM in experiment [1] (setting [3]) and 1 nM in experiment [2] (Homo sapiens).

With `CC(=O)Nc1cn2nc(-c3cnc(C)c(C(=O)NCc4cc(C(F)(F)F)ccn4)c3)ccc2n1` [Example 191, 5-{2-acetamidoimidazo[1,2-b]pyridazin-6-yl}-2-methyl-N-{[4-(trifluoromethyl)pyridin-2-yl]methyl}pyridine-3-carboxamide], the IC50 came out at 938 nM in experiment [1] (setting [3]) and 86 nM in experiment [2] (Homo sapiens).

As to `COc1ncc(-c2ccc3nc(NC(C)=O)cn3n2)cc1C(=O)NCc1cc(C(F)(F)F)ccc1F` [Example 111, 5-{2-acetamidoimidazo[1,2-b]pyridazin-6-yl}-N-{[2-fluoro-5-(trifluoromethyl)phen-yl](deutero)methyl}-2-methoxypyridine-3-carboxamide], the figures for the concentration for half-maximal inhibition (IC50) in experiment [1] (setting [3]) and in experiment [2] were 19 nM and 36 nM, respectively.

Turning to `[2H]C([2H])([2H])[C@@H](NC(=O)c1cc(-c2ccc3nc(NC(C)=O)cn3n2)c(C)nc1C)c1cc(OC(F)(F)F)ccc1F` [Example 70, 5-{2-acetamidoimidazo[1,2-b]pyridazin-6-yl}-N-[(1R)-1-[2-fluoro-5-(trifluoromethoxy)phenyl](2,2,2-deutero)ethyl]-2,6-dimethylpyridine-3-carboxamide], the IC50 in experiment [1] (setting [3]) and in experiment [2] (Homo sapiens) was 9 nM in each case.

As for `CCC(=O)Nc1cn2nc(-c3cnc(OC)c(C(=O)NCc4cc(F)cc(F)c4OC4CCOCC4)c3)ccc2n1` [Example 247, N-{[3,5-difluoro-2-(oxan-4-yloxy)phenyl]methyl}-2-methoxy-5-{2-propanamidoimidazo[1,2-b]pyridazin-6-yl}pyridine-3-carboxamide], the IC50 in experiment [1] (setting [3]) and in experiment [2] (Homo sapiens) was 2 nM each time.

Turning to `Cc1nc(C)c(-c2ccc3nc(NC(=O)CO)cn3n2)cc1C(=O)NCc1cc(OC(F)(F)F)ccc1F` [Example 38, N-(2-fluoro-5-(trifluoromethoxy)benzyl)-5-(2-(2-hydroxyacetamido)imidazo[1,2-b]pyridazin-6-yl)-2,6-dimethylnicotinamide], the values for the concentration for half-maximal inhibition (IC50) in experiment [1] (setting [3]) and in experiment [2] (Homo sapiens) were 13 nM and 34 nM, respectively.

As to `CC(=O)Nc1cn2nc(-c3cncc(NS(=O)(=O)c4ccc(F)cc4)c3)ccc2n1` [Example 11 in US2009/0163489, reference compound], the concentration for half-maximal inhibition (IC50) in experiment [1] (comparison compound of US2009/0163489, read-out: IC50 in the RIPK1 assay) stood at 11000 nM.

Take `Cc1ncc(-c2ccc3nc(NC(=O)CN4CCOCC4)cn3n2)cc1C(=O)NCC[C@H](O)c1ccc(Cl)cc1` [Example 346, N-[(3S)-3-(4-chlorophenyl)-3-hydroxypropyl]-2-methyl-5-{2-[2-(morpholin-4-yl)acetamido]imidazo[1,2-b]pyridazin-6-yl}pyridine-3-carboxamide]: the concentration for half-maximal inhibition (IC50) in experiment [2] (Homo sapiens) is 82 nM.

Take `CC(=O)Nc1cn2nc(-c3cc(F)c(C)c(C(=O)NCc4cc(-c5cnn(C)c5)ccc4F)c3)ccc2n1` [Example 358, 5-(2-acetamidoimidazo[1,2-b]pyridazin-6-yl)-3-fluoro-N-(2-fluoro-5-(1-methyl-1H-pyrazol-4-yl)benzyl)-2-methylbenzamide]: the half-maximal inhibitory concentration (IC50) in experiment [2] (Homo sapiens) worked out at 49 nM.

Consider `COc1ncc(-c2ccc3nc(NC(C)=O)cn3n2)cc1C(=O)NCc1cc(F)cc(F)c1C(=O)N1CCC(F)(F)C1` [Example 324, N-{[2-(3,3-difluoropyrrolidine-1-carbonyl)-3,5-difluorophenyl]methyl}-5-{2-acetamidoimidazo[1,2-b]pyridazin-6-yl}-2-methoxypyridine-3-carboxamide], for which the IC50 in experiment [2] (Homo sapiens) was 3 nM.

`CC(=O)Nc1cn2nc(-c3ccc(C)c(C(=O)Nc4cnn(Cc5ccccc5)c4)c3)ccc2n1` [Example 399, N-(1-benzyl-1H-pyrazol-4-yl)-5-{2-acetamidoimidazo [1,2-b]pyridazin-6-yl}-2-methylbenzamide]: the IC50 in experiment [2] (Homo sapiens) worked out at 5 nM.

On to `COc1ccc(-c2ccc3nc(NC(C)=O)cn3n2)cc1C(=O)NCc1cc(OC(F)(F)F)ccc1F` [Example 418, 5-{2-acetamidoimidazo [1,2-b]pyridazin-6-yl}-N-{[2-fluoro-5-(trifluoromethoxy)phenyl]methyl}-2-methoxybenzamide], for which, in experiment [2] (Homo sapiens), the IC50 stood at 26 nM.
